Publication PMC12445698 (2025)

Assays:
Assay in all cases: ITC
Settings in all cases: 50 mM KCl, 10 mM MgCl2; 40 mM HEPES pH 7.4
[1] = tested on: I39C (RNA, riboswitch) GGGUUGUAUAAGCUCGUUAAUUUGGAAUGAGCGUAUCUACCAGGCAACCGUAAAUUGCCCCAGGCUACAAUC
[2] = tested on: U38C (RNA, riboswitch) GGGUUGUAUAAGCUCGUUAAUUUGGAAUGAGCGUAUCCACAGGCAACCGUAAAUUGCCCCAGGCUACAAUC
[3] = tested on: U38G-I39C (RNA, riboswitch) GGGUUGUAUAAGCUCGUUAAUUUGGAAUGAGCGUAUCGACCAGGCAACCGUAAAUUGCCCCAGGCUACAAUC

Kd [1]	Kd [2]	Kd [3]	SMILES
0.0017 µM	1.3 µM		Nc1nc2[nH]cnc2c(=O)[nH]1
9.79 µM		14.6 µM	O=c1[nH]c(=O)c2[nH]cnc2[nH]1
